From patent US12351597B2, “Substituted biphenyl or phenylheteroaryl-mannosides as antagonists of FimH” (GLAXOSMITHKLINE INTELLECTUAL PROPERTY DEVELOPMENT LIMITED, priority 2019, dated 2025)

Target: T1, FimH (Escherichia coli, UniProt Q1R2J4)
T1 construct: endogenous in cells; host or cells: E. coli UTI89 whole bacteria (piliated), with guinea pig red blood cells
Experiment: Hemagglutination inhibition assay (HAI)
Assay type: cell-based
Details: HAI titer / EC>90: concentration reducing bacterial agglutination of guinea pig red blood cells by >90%; UTI89 bacteria
From the text: “HAI titer or EC>90” is that concentration of the FimH inhibitor/antagonist which reduces the bacterial agglutination of guinea pig red blood cells by greater than 90%.
The activities of the Examples 1-40 compounds above as FimH antagonists/inhibitors were obtained by the following assay(s), and values are provided in Table 1. The values not provided mean that the activities have not yet been tested.
Hemagglutination Inhibition Assay (HAI)
The hemagglutination inhibition (HAI) assay was performed with UTI89 bacteria and guinea pig red blood cells, as previously described (S. J. Hultgren, W. R. Schwan, A. J. Schaeffer, J. L. Duncan Infect. Immun. 1986, 54, 613-620 and Jarvis, C.; Han, Z.; Kalas, V.; Klein, R.; Pinkner, J. S.; Ford, B.; Binkley, J.; Cusumano, C. K.; Cusumano, Z.; Mydock-McGrane, L.; Hultgren, S. J.; Janetka, J. W., ChemMedChem 2016, 11, 367-373). Values not listed were not tested.

SMILES	HAI nM
OC[C@H]1O[C@H](Oc2c(F)cc(-c3cnc(C(F)(F)F)cn3)cc2C(F)(F)F)[C@@H](O)[C@@H](O)[C@@H]1O [Example 2, (2R,3S,4S,5S,6R)-2-(2-Fluoro-6-(trifluoromethyl)-4-(5-(trifluoromethyl)pyrazin-2-yl)phenoxy)-6-(hydroxymethyl)tetrahydro-2H-pyran-3,4,5-triol]	“++++” (<50)
COc1ccc(-c2ccc(O[C@H]3O[C@H](CO)[C@@H](O)[C@H](O)[C@@H]3O)c(C)c2)cn1 [Example 8]	“+++” (50-200)
Cc1cc(-c2ccc(N3CCCC3)nc2)ccc1O[C@H]1O[C@H](CO)[C@@H](O)[C@H](O)[C@@H]1O [Example 9]	“++++” (<50)
Cc1cc(-c2ccnc(N(C)C)c2)ccc1O[C@H]1O[C@H](CO)[C@@H](O)[C@H](O)[C@@H]1O [Example 10]	“++++” (<50)
N#Cc1cc(F)cc(-c2ccc(O[C@H]3O[C@H](CO)[C@@H](O)[C@H](O)[C@@H]3O)c(Cl)c2)c1 [Example 11]	“+++” (50-200)
OC[C@H]1O[C@H](Oc2ccc(-c3nccc(C(F)(F)F)n3)cc2C(F)(F)F)[C@@H](O)[C@@H](O)[C@@H]1O [Example 13]	“+++” (50-200)
Cc1cc(-c2ncc(C(F)(F)F)cn2)ccc1O[C@H]1O[C@H](CO)[C@@H](O)[C@H](O)[C@@H]1O [Example 15]	“+++” (50-200)
OC[C@H]1O[C@H](Oc2ccc(-c3cc(C(F)(F)F)ccn3)cc2C(F)(F)F)[C@@H](O)[C@@H](O)[C@@H]1O [Example 18]	“+++” (50-200)
OC[C@H]1O[C@H](Oc2c(F)cc(-c3cc(C(F)(F)F)ccn3)cc2C(F)(F)F)[C@@H](O)[C@@H](O)[C@@H]1O [Example 19]	“++++” (<50)
OC[C@H]1O[C@H](Oc2ccc(-c3cc(C(F)(F)F)c(F)cn3)cc2C(F)(F)F)[C@@H](O)[C@@H](O)[C@@H]1O [Example 20]	“+++” (50-200)
Cc1cc(-c2cnc(C(F)(F)F)c(F)c2)ccc1O[C@H]1O[C@H](CO)[C@@H](O)[C@H](O)[C@@H]1O [Example 21]	“+++” (50-200)
OC[C@H]1O[C@H](Oc2ccc(-c3ncc(C(F)(F)F)cn3)cc2C(F)(F)F)[C@@H](O)[C@@H](O)[C@@H]1O [Example 22]	“+++” (50-200)
Cc1cc(-c2cnccn2)ccc1O[C@H]1O[C@H](CO)[C@@H](O)[C@H](O)[C@@H]1O [Example 23]	“+++” (50-200)
Cc1cc(-c2ccnc(C(F)(F)F)c2)ccc1O[C@H]1O[C@H](CO)[C@@H](O)[C@H](O)[C@@H]1O [Example 24]	“+++” (50-200)
Cc1cc(-c2ccc(C(F)(F)F)nc2)ccc1O[C@H]1O[C@H](CO)[C@@H](O)[C@H](O)[C@@H]1O [Example 26]	“+++” (50-200)
Cc1cc(-c2ccc(C(F)(F)F)cn2)ccc1O[C@H]1O[C@H](CO)[C@@H](O)[C@H](O)[C@@H]1O [Example 27]	“+++” (50-200)
Cc1cc(-c2nccnc2C(F)(F)F)ccc1O[C@H]1O[C@H](CO)[C@@H](O)[C@H](O)[C@@H]1O [Example 29]	“+++” (50-200)
Cc1cc(-c2cnc(F)c(C(F)(F)F)c2)ccc1O[C@H]1O[C@H](CO)[C@@H](O)[C@H](O)[C@@H]1O [Example 31]	“+++” (50-200)
OC[C@H]1O[C@H](Oc2ccc(-c3ccc(C(F)(F)F)cn3)cc2C(F)(F)F)[C@@H](O)[C@@H](O)[C@@H]1O [Example 32]	“+++” (50-200)
OC[C@H]1O[C@H](Oc2ccc(-c3cnc(C(F)(F)F)cn3)cc2Cl)[C@@H](O)[C@@H](O)[C@@H]1O [Example 33]	“+++” (50-200)
Cc1cc(-c2cncc(C(F)(F)F)n2)ccc1O[C@H]1O[C@H](CO)[C@@H](O)[C@H](O)[C@@H]1O [Example 34]	“+++” (50-200)
OC[C@H]1O[C@H](Oc2c(F)cc(-c3nccc(C(F)(F)F)n3)cc2C(F)(F)F)[C@@H](O)[C@@H](O)[C@@H]1O [Example 36]	“++++” (<50)
